Target: T1, Aβ40 (Homo sapiens, UniProt P05067)
T1 construct: gene APP; 40-residue peptide cut from APP; IC50 rows: purchased mixture of HiLyte Fluor 488- and HiLyte Fluor 647-labelled human peptide (AnaSpec); ThT and TEM rows: unlabelled human recombinant peptide; self-associating, small oligomers of at most 8 monomers
Assay: FRET-FCS early aggregation, molecular brightness (counts per particle)
Assay type: biochemical
Details: inhibition of oligomer formation; HiLyte 488/647-labelled Aβ40 (about 100 nM + 200 nM), 20 mM HEPES pH 7.4

T1 sequence (P05067 672-711 limits assumed): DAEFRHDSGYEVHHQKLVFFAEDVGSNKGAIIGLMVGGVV

## COc1cc(-c2ccc(N=Nc3cc(S(=O)(=O)O)c4ccccc4c3O)c(OC)c2)ccc1N=Nc1cc(S(=O)(=O)O)c2ccccc2c1O [#2, NSC 9615]
  IC50: 130 nM
